# Molecular target: VMAT2 (human platelet homogenate) (Homo sapiens (Human), UniProt Q05940)
# Experiment: Human VMAT2 Ki, slightly modified competition binding procedure (Table 11);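 further: competition binding with 90 min incubation at 25 °C, after which filter-retained radioligand was measured by scintillation counting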
# Settings: 10 nM 3H-dihydrotetrabenazine
# Protocol: Following incubation at 25° C. for 90 minutes, bound radioligand was collected by rapid filtration onto GF/B glass fiber filters using a Unifilter-96 Harvester (PerkinElmer). Filter plates were pre-treated with 0.1% polyethylenimine and allowed to dry overnight, and following harvesting the filter plates were washed with 800 d VMAT2 binding buffer. Bound radioligand was quantified by scintillation counting using a Topcount NXT (PerkinElmer).
# Sequence of VMAT2 (human platelet homogenate) (Q05940 whole entry): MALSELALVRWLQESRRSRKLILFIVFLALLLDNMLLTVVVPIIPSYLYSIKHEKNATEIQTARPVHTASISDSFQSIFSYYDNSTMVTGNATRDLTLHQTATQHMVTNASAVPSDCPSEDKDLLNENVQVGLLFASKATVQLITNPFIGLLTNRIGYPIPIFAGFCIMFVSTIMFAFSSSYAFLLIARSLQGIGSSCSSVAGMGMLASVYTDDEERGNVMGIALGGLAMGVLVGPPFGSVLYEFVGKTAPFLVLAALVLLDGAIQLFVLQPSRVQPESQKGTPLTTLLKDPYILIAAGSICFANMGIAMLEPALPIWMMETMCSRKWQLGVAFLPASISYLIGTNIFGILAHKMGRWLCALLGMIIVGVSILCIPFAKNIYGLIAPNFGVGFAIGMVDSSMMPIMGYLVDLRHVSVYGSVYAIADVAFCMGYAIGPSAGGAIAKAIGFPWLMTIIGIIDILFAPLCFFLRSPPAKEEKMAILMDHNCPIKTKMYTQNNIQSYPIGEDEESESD
row,Ki,SMILES
1,< 10 nM,"COc1cc2c(cc1OC)[C@H]1C[C@@H](COC(=O)CCC(N)=O)[C@H](CC(C)C)CN1CC2 [Compound 2-1, [(2R,3S,11bR)-9,10-dimethoxy-3-(2-methylpropyl)-1H,2H,3H,4H,6H,7H,11bH-pyrido[2,1-a]isoquinolin-2-yl]methyl 3-carbamoylpropanoate]"
2,< 10 nM,"COc1cc2c(cc1OC)[C@H]1C[C@@H](COC(=O)CCN3CCOCC3)[C@H](CC(C)C)CN1CC2 [Compound 2-2, [(2R,3S,11bR)-9,10-dimethoxy-3-(2-methylpropyl)-1H,2H,3H,4H,6H,7H,11bH-pyrido[2,1-a]isoquinolin-2-yl]methyl 3-(morpholin-4-yl)propanoate]"
3,< 10 nM,"COc1cc2c(cc1OC)[C@H]1C[C@@H](COC(=O)CCn3c(=O)[nH]c4ccccc4c3=O)[C@H](CC(C)C)CN1CC2 [Compound 2-3, [(2R,3S,11bR)-9,10-dimethoxy-3-(2-methylpropyl)-1H,2H,3H,4H,6H,7H,11bH-pyrido[2,1-a]isoquinolin-2-yl]methyl 3-(2,4-dioxo-1,2,3,4-tetrahydroquinazolin-3-yl)propanoate]"
4,< 10 nM,"COc1cc2c(cc1OC)[C@H]1C[C@@H](COC(=O)CCC(=O)N(C)C)[C@H](CC(C)C)CN1CC2 [Compound 2-4, [(2R,3S,11bR)-9,10-dimethoxy-3-(2-methylpropyl)-1H,2H,3H,4H,6H,7H,11bH-pyrido[2,1-a]isoquinolin-2-yl]methyl 3-(dimethylcarbamoyl)propanoate]"
5,< 10 nM,"CCS(=O)(=O)NCCC(=O)OC[C@@H]1C[C@@H]2c3cc(OC)c(OC)cc3CCN2C[C@H]1CC(C)C [Compound 2-5, [(2R,3S,11bR)-9,10-dimethoxy-3-(2-methylpropyl)-1H,2H,3H,4H,6H,7H,11bH-pyrido[2,1-a]isoquinolin-2-yl]methyl 3-ethanesulfonamidopropanoate]"
6,< 10 nM,"COc1cc2c(cc1OC)[C@H]1C[C@@H](COC(=O)[C@@H]3CCN(Cc4ccccc4)C3)[C@H](CC(C)C)CN1CC2 [Compound 2-6, [(2R,3S,11bR)-9,10-dimethoxy-3-(2-methylpropyl)-1H,2H,3H,4H,6H,7H,11bH-pyrido[2,1-a]isoquinolin-2-yl]methyl (3R)-1-benzylpyrrolidine-3-carboxylate]"
7,< 10 nM,"COc1cc2c(cc1OC)[C@H]1C[C@@H](COC(=O)CCN(C)C)[C@H](CC(C)C)CN1CC2 [Compound 2-7, [(2R,3S,11bR)-9,10-dimethoxy-3-(2-methylpropyl)-1H,2H,3H,4H,6H,7H,11bH-pyrido[2,1-a]isoquinolin-2-yl]methyl 3-(dimethylamino)propanoate]"
8,< 10 nM,"COc1cc2c(cc1OC)[C@H]1C[C@@H](COC(=O)CN3C[C@@H](C)O[C@@H](C)C3)[C@H](CC(C)C)CN1CC2 [Compound 2-8, [(2R,3S,11bR)-9,10-dimethoxy-3-(2-methylpropyl)-1H,2H,3H,4H,6H,7H,11bH-pyrido[2,1-a]isoquinolin-2-yl]methyl 2-[(2R,6S)-2,6-dimethylmorpholin-4-yl]acetate]"
9,< 10 nM,"COc1cc2c(cc1OC)[C@H]1C[C@@H](COC(=O)CC(N)=O)[C@H](CC(C)C)CN1CC2 [Compound 2-9, [(2R,3S,11bR)-9,10-dimethoxy-3-(2-methylpropyl)-1H,2H,3H,4H,6H,7H,11bH-pyrido[2,1-a]isoquinolin-2-yl]methyl 2-carbamoylacetate]"
10,< 10 nM,"COc1cc2c(cc1OC)[C@H]1C[C@@H](COC(=O)[C@@H]3CCCN(Cc4ccccc4)C3)[C@H](CC(C)C)CN1CC2 [Compound 2-11, [(2R,3S,11bR)-9,10-dimethoxy-3-(2-methylpropyl)-1H,2H,3H,4H,6H,7H,11bH-pyrido[2,1-a]isoquinolin-2-yl]methyl (3R)-1-benzylpiperidine-3-carboxylate]"
11,< 10 nM,"COc1cc2c(cc1OC)[C@H]1C[C@@H](COC(=O)C3CCCN(C)C3)[C@H](CC(C)C)CN1CC2 (stereo partly drawn) [Compound 2-12, [(2R,3S,11bR)-9,10-dimethoxy-3-(2-methylpropyl)-1H,2H,3H,4H,6H,7H,11bH-pyrido[2,1-a]isoquinolin-2-yl]methyl 1-methylpiperidine-3-carboxylate]"
12,< 10 nM,"COc1cc2c(cc1OC)[C@H]1C[C@@H](COC(=O)CCn3cnnn3)[C@H](CC(C)C)CN1CC2 [Compound 2-13, [(2R,3S,11bR)-9,10-dimethoxy-3-(2-methylpropyl)-1H,2H,3H,4H,6H,7H,11bH-pyrido[2,1-a]isoquinolin-2-yl]methyl 3-(1H-1,2,3,4-tetrazol-1-yl)propanoate]"
13,< 10 nM,"COc1cc2c(cc1OC)[C@H]1C[C@@H](COC(=O)CC[N+](=O)[O-])[C@H](CC(C)C)CN1CC2 [Compound 2-14, [(2R,3S,11bR)-9,10-dimethoxy-3-(2-methylpropyl)-1H,2H,3H,4H,6H,7H,11bH-pyrido[2,1-a]isoquinolin-2-yl]methyl 3-nitropropanoate]"
14,< 10 nM,"COc1cc2c(cc1OC)[C@H]1C[C@@H](COC(=O)CCN3CCN(C)CC3)[C@H](CC(C)C)CN1CC2 [Compound 2-15, [(2R,3S,11bR)-9,10-dimethoxy-3-(2-methylpropyl)-1H,2H,3H,4H,6H,7H,11bH-pyrido[2,1-a]isoquinolin-2-yl]methyl 3-(4-methylpiperazin-1-yl)propanoate]"
15,< 10 nM,"COc1cc2c(cc1OC)[C@H]1C[C@@H](COC(=O)CCNS(=O)(=O)C(C)C)[C@H](CC(C)C)CN1CC2 [Compound 2-16, [(2R,3S,11bR)-9,10-dimethoxy-3-(2-methylpropyl)-1H,2H,3H,4H,6H,7H,11bH-pyrido[2,1-a]isoquinolin-2-yl]methyl 3-(propane-2-sulfonamido)propanoate]"
16,10 to 500 nM,"COc1cc2c(cc1OC)[C@H]1C[C@@H](COC(=O)C(C)(C)C)[C@H](CC(C)C)CN1CC2 [Compound 2-17, [(2R,3S,11bR)-9,10-dimethoxy-3-(2-methylpropyl)-1H,2H,3H,4H,6H,7H,11bH-pyrido[2,1-a]isoquinolin-2-yl]methyl 2,2-dimethylpropanoate]"
17,< 10 nM,"COc1cc2c(cc1OC)[C@H]1C[C@@H](COC(=O)C3(C)COC3)[C@H](CC(C)C)CN1CC2 [Compound 2-18, [(2R,3S,11bR)-9,10-dimethoxy-3-(2-methylpropyl)-1H,2H,3H,4H,6H,7H,11bH-pyrido[2,1-a]isoquinolin-2-yl]methyl 3-methyloxetane-3-carboxylate]"
18,< 10 nM,"COc1cc2c(cc1OC)[C@H]1C[C@@H](COC(=O)CCN3CCCCC3)[C@H](CC(C)C)CN1CC2 [Compound 2-19, [(2R,3S,11bR)-9,10-dimethoxy-3-(2-methylpropyl)-1H,2H,3H,4H,6H,7H,11bH-pyrido[2,1-a]isoquinolin-2-yl]methyl 3-(piperidin-1-yl)propanoate]"
19,< 10 nM,"COc1cc2c(cc1OC)[C@H]1C[C@@H](COC(=O)C3CN(Cc4ccccc4)C3)[C@H](CC(C)C)CN1CC2 [Compound 2-21, [(2R,3S,11bR)-9,10-dimethoxy-3-(2-methylpropyl)-1H,2H,3H,4H,6H,7H,11bH-pyrido[2,1-a]isoquinolin-2-yl]methyl 1-benzylazetidine-3-carboxylate]"
20,< 10 nM,"COc1cc2c(cc1OC)[C@H]1C[C@@H](COC(=O)C3CCOCC3)[C@H](CC(C)C)CN1CC2 [Compound 2-22, [(2R,3S,11bR)-9,10-dimethoxy-3-(2-methylpropyl)-1H,2H,3H,4H,6H,7H,11bH-pyrido[2,1-a]isoquinolin-2-yl]methyl oxane-4-carboxylate]"
21,< 10 nM,"COc1cc2c(cc1OC)[C@H]1C[C@@H](COC(=O)CCn3ccc(C)n3)[C@H](CC(C)C)CN1CC2 [Compound 2-23, [(2R,3S,11bR)-9,10-dimethoxy-3-(2-methylpropyl)-1H,2H,3H,4H,6H,7H,11bH-pyrido[2,1-a]isoquinolin-2-yl]methyl 3-(3-methyl-1H-pyrazol-1-yl)propanoate]"
22,10 to 500 nM,"COc1cc2c(cc1OC)[C@H]1C[C@@H](COC(=O)C(C)(C)O)[C@H](CC(C)C)CN1CC2 [Compound 2-24, [(2R,3S,11bR)-9,10-dimethoxy-3-(2-methylpropyl)-1H,2H,3H,4H,6H,7H,11bH-pyrido[2,1-a]isoquinolin-2-yl]methyl 2-hydroxy-2-methylpropanoate]"
23,< 10 nM,"COc1cc2c(cc1OC)[C@H]1C[C@@H](COC(=O)[C@H]3CCN(Cc4ccccc4)C3)[C@H](CC(C)C)CN1CC2 [Compound 2-26, [(2R,3S,11bR)-9,10-dimethoxy-3-(2-methylpropyl)-1H,2H,3H,4H,6H,7H,11bH-pyrido[2,1-a]isoquinolin-2-yl]methyl (3S)-1-benzylpyrrolidine-3-carboxylate]"
24,10 to 500 nM,"COc1cc2c(cc1OC)C1CC(COC(=O)C3CC(C)(C)N([O])C3(C)C)C(CC(C)C)CN1CC2 [Compound 2-27, [3-({[(2R,3S,11bR)-9,10-dimethoxy-3-(2-methylpropyl)-1H,2H,3H,4H,6H,7H,11bH-pyrido[2,1-a]isoquinolin-2-yl]methoxy}carbonyl)-2,2,5,5-tetramethylpyrrolidin-1-yl]oxidanyl]"
25,10 to 500 nM,"COc1cc2c(cc1OC)[C@H]1C[C@@H](COC(=O)CC(C)(C)n3cccc3)[C@H](CC(C)C)CN1CC2 [Compound 2-28, [(2R,3S,11bR)-9,10-dimethoxy-3-(2-methylpropyl)-1H,2H,3H,4H,6H,7H,11bH-pyrido[2,1-a]isoquinolin-2-yl]methyl 3-methyl-3-(1H-pyrrol-1-yl)butanoate]"
26,10 to 500 nM,"COc1cc2c(cc1OC)[C@H]1C[C@@H](COC(=O)CCn3nccc3C)[C@H](CC(C)C)CN1CC2 [Compound 2-29, [(2R,3S,11bR)-9,10-dimethoxy-3-(2-methylpropyl)-1H,2H,3H,4H,6H,7H,11bH-pyrido[2,1-a]isoquinolin-2-yl]methyl 3-(5-methyl-1H-pyrazol-1-yl)propanoate]"
27,< 10 nM,"COc1cc2c(cc1OC)[C@H]1C[C@@H](COC(=O)CC3NC(=O)NC3=O)[C@H](CC(C)C)CN1CC2 (stereo partly drawn) [Compound 2-30, [(2R,3S,11bR)-9,10-dimethoxy-3-(2-methylpropyl)-1H,2H,3H,4H,6H,7H,11bH-pyrido[2,1-a]isoquinolin-2-yl]methyl 2-(2,5-dioxoimidazolidin-4-yl)acetate]"
